Marks after values point to notes of the source that are not given here. Peptide text beside a SMILES is read from it. * marks the point of attachment. X74 = O=C1C=CC(=O)N1c1cccc(CCCCCCCCCCC(=O)*)c1; X84 = O=C1C=CC(=O)N1c1ccccc1CCCCCCCCCCCCC(=O)*; X54 = O=C1C=CC(=O)N1c1cccc(CCCCCCC(=O)*)c1; X63 = O=C1C=CC(=O)N1c1ccccc1CCCCCCC(=O)*; X61 = O=C1C=CC(=O)N1c1cccc(CCCC(=O)*)c1
Experiments:
HUVECs = experiment: Transwell migration inhibition on HUVECs; assay type: cell-based, human; settings: for Inhibition rate (%): HUVEC migration vs blank control; for Cell migration number (Mean ± SD): HUVECs, transwell, 24 h
[1] = test system: IL-1β production by mouse peritoneal macrophages; experiment: IL-1β production by mouse peritoneal macrophages (ELISA); assay type: cell-based; settings: for Inhibition rate: IL-1β production, vs model group; for IL-1β: mouse peritoneal macrophages, 48 h, ELISA
Procedure, shortened: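 Starch-elicited (6%, i.p.) mouse peritoneal macrophages, 2×10^6 cells/mL in RPMI 1640, adhered 3 h; non-adherent cells washed off. Polypeptides added at low, medium and high concentrations, Dex as positive control; cultured 48 h, supernatant IL-1β measured.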

[2] = test system: xylene-induced ear swelling; experiment: Xylene-induced mouse ear swelling; assay type: in vivo; settings: Kunming mice, injected once a day for 5 days; for Swelling degree (mg) / Swelling degree: right minus left ear piece weight 2 h after xylene; for Inhibition rate (%): xylene-induced ear swelling
Procedure, shortened: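 Kunming mice dosed by injection once daily for 5 days; 1 h after last dose, 0.05 mL xylene applied to right ear, left ear untreated. Mice killed 2 h later; punched ear pieces weighed. Swelling degree = right minus left ear weight; swelling rate = swelling degree/left ear weight ×100%.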

[3] = test system: collagen-induced arthritis; experiment: Mouse collagen-induced arthritis (CIA) animal model; assay type: in vivo; settings: DBA/1 mice CIA model, dose 4.0 mg/kg, subcutaneous from day 30, n=10; for Clinical score: highest score 16
[4] = test system: corneal neovascularization; experiment: Corneal neovascularization induced by alkali burn in BALB/c mice; assay type: in vivo; parameters: Inhibition rate (corneal neovascularization): concentration or dose not given beside the values; settings: day 14 after alkali burn, vitreous injection once a day for 1 week
[5] = test system: retinal neovascularization (OIR model); experiment: Retinal vessels in OIR mice; assay type: in vivo, C57/B16 mice; settings: for Area of neovascular plexus (mm^2): dose 0.05 μM in the vitreous chamber on day 13, retinal vessels evaluated on day 17; for Inhibition rate (%): dose 0.05 μM in the vitreous chamber on day 13, retinal vessels evaluated on day 17, vs negative control
Procedure, shortened: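 C57/B16 pups were held in 75% oxygen from postnatal day 7 to 12, then returned to room air. On day 13 they received intravitreal saline or compound. On day 17 perfused vessels were labelled by Texas red tomato agglutinin injected into the left ventricle (5 min circulation) and retinal vasculature assessed.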

[6] = test system: retinal vascular endothelial nuclei; experiment: Neovascularization in a rat model of premature retinopathy; assay type: in vivo, rats; settings: dose 0.05 μM in the vitreous chamber from day 7 of modeling for one week; counted on day 14; oxygen-induced neonatal rats
Procedure, shortened: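 Newborn rats kept 7 d in chamber alternating 80% and 10% O2 every 24 h (23 °C), then room air. Intravitreal injection of test agents on day 7, saline for model and control; eyes taken day 14, HE-stained 4 μm sections. Endothelial nuclei breaching retinal inner limiting membrane counted, averaged per section per eye (10 sections).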

| Compound | Inhibition rate (%) (HUVECs; dose 0.05 μM) | Inhibition rate (%) (HUVECs; dose 0.1 μM) | Inhibition rate (%) (HUVECs; dose 0.2 μM) | Cell migration number (Mean ± SD) (HUVECs; dose 0.05 μM) | Cell migration number (Mean ± SD) (HUVECs; dose 0.1 μM) | Cell migration number (Mean ± SD) (HUVECs; dose 0.2 μM) | Inhibition rate ([1]; dose 0.05 μM) [%] | IL-1β ([1]; dose 0.05 μM) [pg/mL] | Inhibition rate ([1]; dose 0.1 μM) [%] | IL-1β ([1]; dose 0.1 μM) [pg/mL] | Inhibition rate ([1]; dose 0.2 μM) [%] | IL-1β ([1]; dose 0.2 μM) [pg/mL] | Inhibition rate (%) ([2]; dose 2 mg/kg) | Inhibition rate (%) ([2]; dose 4 mg/kg) | Swelling degree (mg) ([2]; dose 8 mg/kg) | Inhibition rate (%) ([2]; dose 8 mg/kg) | Joint swelling degree (mm) [3] [mm] | Left and right paw swelling degree (mm) [3] [mm] | Clinical score [3] | Inhibition rate (corneal neovascularization) [4] [%] | also measured |
| --- | --- | --- | --- | --- | --- | --- | --- | --- | --- | --- | --- | --- | --- | --- | --- | --- | --- | --- | --- | --- | --- |
| C[C@H](NC(=O)CNC(=O)[C@H](CCCNC(=N)N)NC(=O)CCCCCCCCCCc1cccc(N2C(=O)C=CC2=O)c1)C(=O)N[C@@H](CC(=O)O)C(=O)N[C@@H](CCCNC(=N)N)C(=O)N[C@@H](C)C(=O)NCC(=O)NCC(=O)NCC(=O)NCC(=O)N[C@@H](CCCNC(=N)N)C(=O)NCC(=O)N[C@@H](CC(=O)O)C(=O)O [X34] (X74-RGADRAGGGGRGD-OH) | 47.95 | 52.08 | 53.69 | 557.95 ± 42.69 | 513.64 ± 43.27 | 496.39 ± 56.37 | 18.47 | 767.28 ± 18.52 | 19.97 | 753.21 ± 13.97 | 28.14 | 676.31 ± 16.02 | 38.04 | 46.07 | 3.2 ± 0.39** mg | 48.64 | 0.84 ± 0.13 | 0.72 ± 0.15 | 8.8 ± 1.34 | 48.36 | Swelling degree (mg) ([2]; dose 2 mg/kg): 3.86 ± 0.43** mg; Swelling degree (mg) ([2]; dose 4 mg/kg): 3.36 ± 0.53** mg; MVD (corneal microvessel density) [4]: 34.72 ± 6.051; Area of neovascular plexus (mm^2) [5]: 0.120 ± 0.014 mm^2; Inhibition rate (%) [5]: 43.40%*; Nuclei count (retinal vascular endothelial nuclei, average per section per eyeball) [6]: 7.292 ± 3.827 |
| C[C@H](NC(=O)CNC(=O)[C@H](CCCNC(=N)N)NC(=O)CCCc1cccc(N2C(=O)C=CC2=O)c1)C(=O)N[C@@H](CC(=O)O)C(=O)N[C@@H](CCCNC(=N)N)C(=O)N[C@@H](C)C(=O)NCC(=O)NCC(=O)NCC(=O)NCC(=O)N[C@@H](CCCNC(=N)N)C(=O)NCC(=O)N[C@@H](CC(=O)O)C(=O)O [X27] (X61-RGADRAGGGGRGD-OH) | 46.39 | 49.01 | 53.38 | 574.65 ± 60.83 | 546.51 ± 46.67 | 499.65 ± 59.06 | 25.91 | 697.32 ± 17.18 | 30.97 | 649.68 ± 18.74 | 33.62 | 624.72 ± 14.38 | 13.96 | 23.60 | 3.13 ± 0.38* mg | 27.13 | 0.78 ± 0.19 | 0.75 ± 0.13 | 8.75 ± 1.43 | 43.93 | Swelling degree ([2]; dose 2 mg/kg): 5.36 ± 0.32 mg; Swelling degree (mg) ([2]; dose 4 mg/kg): 4.76 ± 0.89* mg; MVD (corneal microvessel density) [4]: 37.70 ± 3.805; Area of neovascular plexus (mm^2) [5]: 0.106 ± 0.002 mm^2; Inhibition rate (%) [5]: 50.00%**; Nuclei count (retinal vascular endothelial nuclei, average per section per eyeball) [6]: 8.358 ± 1.328 |
| C[C@H](NC(=O)CNC(=O)[C@H](CCCNC(=N)N)NC(=O)CCCCCCc1ccccc1N1C(=O)C=CC1=O)C(=O)N[C@@H](CC(=O)O)C(=O)N[C@@H](CCCNC(=N)N)C(=O)N[C@@H](C)C(=O)NCC(=O)NCC(=O)NCC(=O)NCC(=O)N[C@@H](CCCNC(=N)N)C(=O)NCC(=O)N[C@@H](CC(=O)O)C(=O)O [X18] (X63-RGADRAGGGGRGD-OH) | 40.73 | 41.02 | 44.55 | 635.26 ± 59.22 | 632.13 ± 55.39 | 594.30 ± 45.38 | 23.36 | 721.31 ± 12.75 | 23.86 | 716.58 ± 16.56 | 27.40 | 683.26 ± 19.63 | 13.00 | 15.25 | 4.18 ± 0.9** mg | 32.91 | 0.72 ± 0.11 | 0.79 ± 0.12 | 8.91 ± 1.29 | 50.18 | Swelling degree ([2]; dose 2 mg/kg): 5.42 ± 0.18 mg; Swelling degree ([2]; dose 4 mg/kg): 5.28 ± 0.46 mg; MVD (corneal microvessel density) [4]: 33.50 ± 5.649; Area of neovascular plexus (mm^2) [5]: 0.119 ± 0.011 mm^2; Inhibition rate (%) [5]: 43.87%*; Nuclei count (retinal vascular endothelial nuclei, average per section per eyeball) [6]: 8.002 ± 3.606 |
| C[C@H](NC(=O)CNC(=O)[C@H](CCCNC(=N)N)NC(=O)CCCCCCc1cccc(N2C(=O)C=CC2=O)c1)C(=O)N[C@@H](CC(=O)O)C(=O)N[C@@H](CCCNC(=N)N)C(=O)N[C@@H](C)C(=O)NCC(=O)NCC(=O)NCC(=O)NCC(=O)N[C@@H](CCCNC(=N)N)C(=O)NCC(=O)N[C@@H](CC(=O)O)C(=O)O [X30] (X54-RGADRAGGGGRGD-OH) | 41.12 | 53.55 | 53.58 | 631.10 ± 64.04 | 497.88 ± 65.38 | 497.56 ± 68.24 | 28.30 | 674.82 ± 10.45 | 33.96 | 621.53 ± 19.69 | 37.33 | 589.79 ± 19.66 | 16.69 | 18.62 | 3.77 ± 0.38** mg | 39.49 | 0.83 ± 0.16 | 0.79 ± 0.16 | 8.73 ± 1.29 | 47.13 | Swelling degree ([2]; dose 2 mg/kg): 5.19 ± 0.57 mg; Swelling degree ([2]; dose 4 mg/kg): 5.07 ± 0.49 mg; MVD (corneal microvessel density) [4]: 35.55 ± 5.717; Area of neovascular plexus (mm^2) [5]: 0.118 ± 0.012 mm^2; Inhibition rate (%) [5]: 44.34%*; Nuclei count (retinal vascular endothelial nuclei, average per section per eyeball) [6]: 8.256 ± 3.403 |
| C[C@H](NC(=O)CNC(=O)[C@H](CCCNC(=N)N)NC(=O)CCCCCCCCCCCCc1ccccc1N1C(=O)C=CC1=O)C(=O)N[C@@H](CC(=O)O)C(=O)N[C@@H](CCCNC(=N)N)C(=O)N[C@@H](C)C(=O)NCC(=O)NCC(=O)NCC(=O)NCC(=O)N[C@@H](CCCNC(=N)N)C(=O)NCC(=O)N[C@@H](CC(=O)O)C(=O)O [X24] (X84-RGADRAGGGGRGD-OH) | 49.57 | 49.95 | 51.01 | 540.49 ± 60.98 | 536.51 ± 42.41 | 525.06 ± 53.33 | 29.88 | 659.97 ± 17.07 | 31.39 | 645.67 ± 11.87 | 41.69 | 548.82 ± 19.58 | 15.73 | 20.06 | 4.34 ± 0.68** mg | 30.34 | 0.82 ± 0.11 | 0.71 ± 0.12 | 8.94 ± 1.41 | 46.24 | Swelling degree ([2]; dose 2 mg/kg): 5.25 ± 0.06 mg; Swelling degree (mg) ([2]; dose 4 mg/kg): 4.98 ± 0.19* mg; MVD (corneal microvessel density) [4]: 36.15 ± 4.199; Area of neovascular plexus (mm^2) [5]: 0.107 ± 0.012 mm^2; Inhibition rate (%) [5]: 49.53%*; Nuclei count (retinal vascular endothelial nuclei, average per section per eyeball) [6]: 7.699 ± 3.108 |
